According to US10471005B2, “Low dose pharmaceutical composition” (TORRENT PHARMACEUTICALS LIMITED, priority 2013, dated 2019):
Where “and” joins values, the source holds several entries; their conditions need not be identical. Identical values can stand only once. Like-named read-outs stand apart in the source and are kept apart here.

Legend:
DSS induced colitis = assay: Effectiveness in DSS induced colitis model; format: in vivo, female BALB/c mice; conditions: 1 and 2.5 mg/kg bid oral, day 5 to day 14, vs placebo (5% DSS)
Procedure: 5% DSS (MW-36000-50000) dissolved in drinking water was provided to female BALB/c mice for 11 days (Gunther et al, The Journal of Pharmacology and Experimental Therapeutics, 1999; Vol. 292, No. 1; 22-30) followed by DSS free period till day 14. Pharmaceutical composition comprising compound A was administered to these animals from day 5 to day 14 at the dose of 1 and 2.5 mg/kg of compound A twice a day, at 10 ml/kg dosing volume by oral route (PO). Placebo group was given similar composition without compound A. Placebo (composition without compound A) was also administered to healthy animals, which were given only drinking water and represented as placebo (water). Treatment related attenuation in body weight loss, improved disease activity index (DAI, a composite score ranging from 0 to maximum 12 considering the loss in body weight, fecal consistency and presence or absence of occult blood in feces) and colon histopathology (Score) were established in 10 days treated animals (from day 5 to day 14) to check efficacy of compound A. Body weights were monitored daily, DAI was captured every alternate day whereas histopathological evaluation of colonic damage was performed in formalin fixed colon tissue after study completion, similar to example 5. (*p<0.05 vs placebo (5% DSS)) and FIG. 4.

[1] = Pharmacokinetic evaluation in TNBS induced colitis model (plasma levels, LC-MS/MS); format: in vivo, male BALB/c mice; conditions: TNBS colitis mice; for Cmax / AUC: male, BALB/c, mouse, 1 mg/kg twice a day, after fifth dose, plasma; for AUC: read-out: AUC0—12
Procedure: (§1) Animal with TNBS (2,4,6 trinitrobenzene sulfonic acid) induced colitis is an established model for IBD. Male BALB/c mice were kept for 16 hours fasting and were administered 0.1 ml TNBS solution (containing 1.5 mg of TNBS in 50% ethanol) rectally 4 cm inside the anus with the help of flexible polyethylene catheter under isoflurane anesthesia. Immediately after TNBS administration, mice were held vertically in a head-down position for an additional 45-60 sec to ensure retention and distribution of TNBS solution within the colon of animal. (Fiorucci et al, Immunity, 2002; Vol. 17; 769-780)
Pharmaceutical composition comprising compound A was administered to mice with TNBS induced colitis (as developed according to example 3) at the dose of 1 mg/kg of compound A twice a day, at 10 ml/kg dosing volume by intraperitoneal route and peroral route. Dosing was initiated a day prior to induction (day −1) of TNBS colitis. Blood samples of treated animals were collected before administration of fifth dose (0 min) and at various time points after fifth dose administration. Blood samples were centrifuged within one hour of collection at 4000 rpm for 10 min at 4° C. and plasma was separated. These plasma samples were analyzed for compound A levels using LC-MS/MS method. Pharmacokinetic parameters of the compound A were calculated by non-compartmental analysis method using Phoenix WinNolin version 6.2.

[2] = Excretion of compound A in feces, DSS induced colitis model; format: in vivo, female BALB/c mice; conditions: for dose excreted: female, BALB/c, mouse, feces, po
Procedure: 5% DSS (MW-36000-50000) dissolved in drinking water was provided to female BALB/c mice throughout the study duration of 9 days. Single administration of pharmaceutical composition comprising compound A at the dose of 1 mg/kg of compound A, at 10 ml/kg dosing volume was performed orally on day 5. Feces were collected for 96 hours post administration of the composition. Feces collected was analyzed for compound A levels using LC-MS/MS method.

HSP70 = HSP70 expression in colon, DSS model of colitis (immunoblotting); format: in vivo, female BALB/c mice; conditions: single oral 2.5 mg/kg, six hours after administration, vs placebo
Procedure: Effect of oral administration of pharmaceutical composition of compound A on expression of HSP70 was checked in DSS model of colitis.
5% DSS (MW-36000-50000) dissolved in drinking water was provided to female BALB/c mice for 5 days. Single dose of compound A was administered to these animals on day 5. Composition comprising compound A was administered at the dose of 2.5 mg/kg, at 10 ml/kg dosing volume by oral route (PO). Placebo group was given similar composition without compound A. Six hours after administration, animals were sacrificed and colon were processed for whole tissue extract preparation. Proteins were separated on SDS-PAGE followed by immunoblotting, employing HSP70 antibody.

TNBS induced colitis = assay: Effectiveness in TNBS induced colitis model; format: in vivo, male BALB/c mice
Procedure: as §1
Pharmaceutical composition comprising compound A was administered orally to mice with TNBS induced colitis (as developed according to example 3) at the dose of 1 mg/kg of compound A twice a day, at 10 ml/kg dosing volume. Dosing was initiated a day prior to induction (day −1) of TNBS colitis. Treatment related attenuation in body weight loss, improved disease activity index (DAI, a composite score ranging from 0 to maximum 12 considering the loss in body weight, fecal consistency and presence or absence of occult blood in feces), healthier colon (macroscopy score) and rate of survival were established in the 6 days treated animals (from day −1 to day 4) to check efficacy of compound A. Body weights were monitored daily, DAI was captured on day 2 and day 4 whereas colonic damage (macroscopy score and histopathological score) was scored based on extent of colonic damage. Histopathological evaluation of colonic damage was performed in formalin fixed colon tissue sections, stained with hematoxylin and eosin, at 10× magnification using Leica® DM2500 microscope, after study completion. (*p<0.05 vs placebo/vehicle {composition without compound A}), FIG. 5 and FIG. 8.
Similar to procedures given above in Example 5, pharmaceutical composition of compound A was administered, twice a day, in mice with TNBS induced colitis through intraperitoneal route and oral route. Treated animals were analyzed for improved disease activity index and healthier colon (macroscopy score).

[3] = test system: ischemic acute kidney injury (AKI); conditions: administered intraperitoneally; cited from earlier work
interleukin (IL)-10 = assay: Inflammatory marker mRNA expression in colon, DSS model: IL-10; format: in vivo, female BALB/c mice; conditions: 2.5 mg/kg bid oral day 5 to day 14, relative to placebo
Procedure: (§2) Effect of oral administration of pharmaceutical composition of compound A on expression of interleukin (IL)-10, TNF-α, and interferon (INF)-γ mRNA was assessed in DSS model of colitis.
(§3) Pharmaceutical composition comprising compound A was administered 2.5 mg/kg twice a day from day 5 to day 14 to DSS induced colitis mice (as developed according to example 7) by oral route (PO). Animals were sacrificed on day 14 and colon were processed for whole tissue extract preparation. Expression of interleukin (IL)-10, TNF-α, and interferon (INF)-γ mRNA along with expression of 18S rRNA was monitored employing gene specific primer and probes (Applied Biosystems, Foster City, Calif., USA) by quantitative real-time polymerase chain reaction on ABI 7900 HT (Applied Biosystems, Foster City, Calif., USA). mRNA expression was normalized relative to the expression of 18S rRNA. Placebo group was given similar composition without compound A. The results, as given in FIG. 7, were expressed as fold induction relative to placebo (composition without compound A).

interferon (INF)-γ = assay: Inflammatory marker mRNA expression in colon, DSS model: INF-γ; format: in vivo, female BALB/c mice; conditions: 2.5 mg/kg bid oral day 5 to day 14, relative to placebo
Procedure: as §2, §3

TNF-α = assay: Inflammatory marker mRNA expression in colon, DSS model: TNF-α; format: in vivo, female BALB/c mice; conditions: 2.5 mg/kg bid oral day 5 to day 14, relative to placebo
Procedure: as §2, §3

[4] = single oral 1 mg/kg, feces collected 96 hours, individual animals, 1 mg/kg
[5] = 1 mg/kg bid oral, 6 days, vs placebo

## O=C(O)CNC(=O)c1c(O)nc2sc3c(n2c1=O)CCCCC3 [compound A, [(2-hydroxy-4-oxo-6,7,8,9-tetrahydro-4H,5H-10-thia-1,4a-diaza-benzo[a]azulene-3-carbonyl)-amino]-acetic acid]
DSS induced colitis
  Disease activity index (DAI): improving the disease activity index
  Extent of colon damage (colitis score): attenuating extent of colon damage
  Rate of weight loss: reducing the rate of weight loss
  Tissue architecture (colon histopathology): preserving tissue architecture
[1]; equal dose
  Systemic concentration, oral compared to IP administration: significantly lower systemic concentration
[1]; ip, Intraperitoneal
  Cmax: 399 ng/mL
  AUC: 256 ng·h/mL
[1]; Per Oral
  Cmax: 13.2 ng/mL
  AUC: 63.1 ng·h/mL
[2]; 1 mg/kg, single oral 1 mg/kg, feces collected 96 hours, individual animals, read-out: % Recovery in feces
  dose excreted: 63.9%
[2]; 1 mg/kg, single oral 1 mg/kg, feces collected 96 hours, mean of 5 animals, read-out: Mean % Recovery in feces
  dose excreted: 58.7%
[2]; oral composition, diseased animals
  Compound A recovered from feces: more than 50%
[2]; [4]
  % Recovery in feces: 62.35% and 52.66% and 50.88% and 63.60%
  Total amount of compound A in feces: 15.34 µg and 13.71 µg and 12.63 µg and 12.71 µg and 12.08 µg
HSP70
  HSP70 protein expression in colon: pronounced induction
TNBS induced colitis; [5]
  Disease activity index (DAI): improving the disease activity index
  Extent of colon damage (macroscopy, histopathology): attenuating the extent of colon damage
  Rate of weight loss: reducing rate of weight loss
  Survival rate: improving survival rate
TNBS induced colitis; twice a day, oral even at lower doses
  Therapeutic efficacy (DAI, macroscopy score), oral compared to IP administration: better therapeutic efficacy as compared to IP administration
[3]
  Effectiveness in ischemic acute kidney injury (AKI): effective
Interleukin (IL)-10
  IL-10 mRNA expression in colon: elevation
Interferon (INF)-γ
  INFγ mRNA expression in colon: reduction
TNF-α
  TNFα mRNA expression in colon: reduction
